Assay results published in patent US5622976A, “Oxadiazole derivatives having acetylcholinesterase-inhibitory and muscarinic agonist activity” (priority 1991, dated 1997).

Molecular target: T1, acetylcholinesterase (Rattus norvegicus, UniProt P37136)
T1 construct: obtained from rat's corpus striatum; from tissue; host or cells: rat corpus striatum
Assay: Inhibition of acetylcholinesterase (enzyme assay)
Format: biochemical
Details: acetylcholinesterase from rat's corpus striatum
Description: The ability to inhibit acetylcholinesterase was determined by the method (enzyme assay) described in Clinica Chimica Acta, 115 (1981) 163-170. The acetylcholinesterase used in this test was obtained from rat's corpus striatum.

T1 sequence (P37136 32-614): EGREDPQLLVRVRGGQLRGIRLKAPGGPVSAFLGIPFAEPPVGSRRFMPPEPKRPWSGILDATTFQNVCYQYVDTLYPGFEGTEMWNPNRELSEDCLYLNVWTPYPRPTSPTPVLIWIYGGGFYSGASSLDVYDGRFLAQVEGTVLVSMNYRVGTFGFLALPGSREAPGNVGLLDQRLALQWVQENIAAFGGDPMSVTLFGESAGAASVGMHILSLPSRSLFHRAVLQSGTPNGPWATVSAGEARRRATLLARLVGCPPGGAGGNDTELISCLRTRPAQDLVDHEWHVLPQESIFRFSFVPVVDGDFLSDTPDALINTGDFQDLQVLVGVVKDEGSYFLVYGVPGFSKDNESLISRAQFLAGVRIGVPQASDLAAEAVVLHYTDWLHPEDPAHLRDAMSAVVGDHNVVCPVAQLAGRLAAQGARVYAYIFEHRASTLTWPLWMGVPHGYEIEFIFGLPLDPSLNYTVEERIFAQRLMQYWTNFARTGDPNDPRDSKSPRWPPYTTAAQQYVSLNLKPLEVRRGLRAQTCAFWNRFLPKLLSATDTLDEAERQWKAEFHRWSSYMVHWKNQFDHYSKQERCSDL

Structure (SMILES) | IC50 [nM]
O=C(NCCC1CCN(Cc2ccccc2)CC1)c1noc(C2CN3CCC2CC3)n1 (centres unmarked) [(a)] | 8
O=C(NCCC1CCN(Cc2ccccc2)CC1)c1noc(-c2ccc([N+](=O)[O-])cc2)n1 [(b)] | 1.7
